The values that follow come from paper PMC5566834 (2017).

For assay [1], the system named is Rd 13 (DNA, aptamer) CGGGGGGAGGCGGAGGGAGGACTGGGGCTTCATTGACGTTCTTCACAGTAGGGGTAAGGGCTTAGGTGGTTGGTGCCTG
Nature of the assay: competitive fluorescence anisotropy. The settings on record: 140 mM Na+, 2 mM K+, 5 mM Mg2+, 2 mM Ca2+, 20 mM Tris pH 7.4, PosBD displaced, 1,000 pmol drug in 125 μl.

Assay [2] relates to amino-Rd 13 (DNA, aptamer) CGGGGGGAGGCGGAGGGAGGACTGGGGCTTCATTGACGTTCTTCACAGTAGGGGTAAGGGCTTAGGTGGTTGGTGCCTG
Nature of the assay: graphene field effect transistor, Dirac voltage shift. The note with it: 140 mM Na+, 2 mM K+, 5 mM Mg2+, 2 mM Ca2+; SELEX buffer (20 mM Tris pH 7.4, 0.05% Tween); Langmuir-Hill fit; also printed as 1.8 ± 0.5 μg/ml.

Assay [3] concerns Rd 13 Scrambled (S) (DNA, aptamer) GCTGTGTGCGTGAGTGGAGTGCGCGCGAGAGTGAGTGCGGTGAGAGATTCGGTGTGCGTGTCGTGATGAATGCGACCGG
In words: circular dichroism. The note with it: 0.2 mM Mg2+; 20 mM Tris pH 7.4; 10 μM aptamer, 100 μM posaconazole; no CD change. (In general: Circular dichroism is the unequal absorption of left and right circularly polarised light.)

With `CCC(C)n1ncn(-c2ccc(N3CCN(c4ccc(OCC5COC(Cn6cncn6)(c6ccc(Cl)cc6Cl)O5)cc4)CC3)cc2)c1=O` (stereo not shown), in assay [1] (less than posaconazole), the binding entry was “weak”.
For the compound `CC[C@@H]([C@H](C)O)n1ncn(-c2ccc(N3CCN(c4ccc(OC[C@@H]5CO[C@@](Cn6cncn6)(c6ccc(F)cc6F)C5)cc4)CC3)cc2)c1=O`, the dissociation constant in assay [2] turned out to be 2.6 ± 0.7 µM. Further, the binding result in assay [1] (greatest displacement) was “yes”; in assay [3], “no”.
